This is an account of results in US10040779B2, “Histone demethylase inhibitors” (priority 2012, dated 2018).

In the assay the test system is KDM5A and KDM5B. In words: In vitro cell-based assay: tri-methyl H3K4 immuno-blotting in ZR-75-1 breast cancer cells. The settings on record: 72 hr, read-out: Cellular IC50. The procedure:
This quantitative immuno-blotting assay measures the amount tri-methylated histone H3 at amino acid Lysine number 4, a specific substrate […] of the direct enzymatic activity of the histone demethylases KDM5A and KDM5B from extracts of the ZR-75-1 breast cancer cell line.
This assay is a fluorometric immunoassay for the quantification of tri-methyl H3K4 extracted from cells treated with test compound and is used as a measure of the cellular inhibition of KDM5A/B.
Extracts were prepared containing all of the cellular histone material using detergent based lysis and sonication methods. These lysates were subsequently normalized for total protein content using a colorimetric bicinchonic acid assay (MicroBCA Pierce/Thermo Scientific). Normalized cell extracts were then subjected to typical immuno-blotting procedures using NuPage reagents (Life Technologies). […] The amount of tri-methylated lysine 4 of histone H3 was detected using an antibody specific to the tri-methylated state (Cell Signaling Technologies) and quantified on an infrared imager using a densitometry software package (Odyssey CLx, Image Studio, Li-Cor). This background subtracted densitometry value was reported as a ration of the GAPDH amount for that sample and then calculated as a percent of the DMSO treated sample.

One may read the IC50 as the point on the concentration scale where inhibition reaches its midpoint. For the molecule `O=C(O)c1ccncc1Nc1cn(C2CCOC2)c2ccc(F)cc12` (stereo not shown) [Example 68, 3-{[5-fluoro-1-(tetrahydrofuran-3-yl)-1H-indol-3-yl]amino}pyridine-4-carboxylic acid], the 50% inhibitory concentration (IC50) lay in the range of 1 to 10 µM.
